Test results reported in article PMC11053447, “Human ABC and SLC Transporters: The Culprit Responsible for Unspecific PSMA-617 Uptake?” (Pharmaceuticals, 2024).

Tests used:
MRP4 = biological target: T1, MRP4 (Homo sapiens, UniProt O15439); experiment: Vesicular transport inhibition assay (ABC), MRP4-mediated DHEAS transport, HEK293 membrane vesicles; type: in vitro ADME; settings: for Relative inhibition / ATP dependent transport / Relative ATP dependent transport: DHEAS probe; for ATP dependent transport / Relative ATP dependent transport: mean (n=3) ± SD
T1 construct: host or cells: HEK293 (membrane vesicles)
T1 sequence (O15439 1-1325): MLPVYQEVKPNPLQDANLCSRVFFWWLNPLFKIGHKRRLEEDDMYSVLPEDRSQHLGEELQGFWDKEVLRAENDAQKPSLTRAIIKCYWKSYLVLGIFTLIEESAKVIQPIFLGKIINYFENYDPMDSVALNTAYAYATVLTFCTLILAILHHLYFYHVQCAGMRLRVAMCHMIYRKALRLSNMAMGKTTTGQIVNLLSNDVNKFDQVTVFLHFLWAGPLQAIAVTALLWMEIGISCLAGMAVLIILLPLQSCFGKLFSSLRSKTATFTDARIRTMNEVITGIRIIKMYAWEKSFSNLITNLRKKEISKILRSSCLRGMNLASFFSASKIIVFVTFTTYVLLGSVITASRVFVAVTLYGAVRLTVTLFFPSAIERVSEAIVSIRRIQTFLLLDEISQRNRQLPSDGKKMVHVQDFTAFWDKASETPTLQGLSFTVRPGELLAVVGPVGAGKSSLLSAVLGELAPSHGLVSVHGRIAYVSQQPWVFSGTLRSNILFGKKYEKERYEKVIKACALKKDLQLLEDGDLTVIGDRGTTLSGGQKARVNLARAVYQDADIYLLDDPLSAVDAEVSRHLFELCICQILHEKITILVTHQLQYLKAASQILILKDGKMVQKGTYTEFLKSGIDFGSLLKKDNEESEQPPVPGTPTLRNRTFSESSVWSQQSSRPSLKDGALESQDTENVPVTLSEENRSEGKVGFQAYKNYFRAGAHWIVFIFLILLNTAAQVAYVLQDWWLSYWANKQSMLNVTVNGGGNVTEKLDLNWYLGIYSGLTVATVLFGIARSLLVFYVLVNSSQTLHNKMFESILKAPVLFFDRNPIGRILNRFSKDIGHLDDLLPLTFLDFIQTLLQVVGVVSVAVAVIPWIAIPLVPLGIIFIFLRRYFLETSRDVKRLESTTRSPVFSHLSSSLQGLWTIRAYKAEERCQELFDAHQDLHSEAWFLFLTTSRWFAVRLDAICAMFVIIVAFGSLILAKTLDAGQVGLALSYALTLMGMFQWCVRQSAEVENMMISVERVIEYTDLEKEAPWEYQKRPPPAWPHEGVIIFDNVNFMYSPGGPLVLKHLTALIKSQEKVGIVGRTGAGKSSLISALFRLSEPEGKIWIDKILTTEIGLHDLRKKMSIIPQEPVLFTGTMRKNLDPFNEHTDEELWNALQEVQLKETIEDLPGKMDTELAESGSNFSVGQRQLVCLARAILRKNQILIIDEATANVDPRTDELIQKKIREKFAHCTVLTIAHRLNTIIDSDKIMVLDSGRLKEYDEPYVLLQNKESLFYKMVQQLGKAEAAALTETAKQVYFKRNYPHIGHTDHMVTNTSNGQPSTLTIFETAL

human MATE2-K = human MATE2-K (Homo sapiens, UniProt Q86VL8); experiment: SLC transporter substrate assay, MDCKII-MATE2K-Fin vs control MDCKII-CAT-Fin cells
Description: The described cells were plated onto standard 24-well tissue culture plates at densities of 5 × 10^5 cells/well. […] Before starting the experiment, the cells were prepared by removing the medium and washing the cells twice with 300 µL of assay buffer. […] The cells were lysed by adding 300 µL of 0.1N NaOH, they were incubated for 10 min at 37 °C and 100 µL samples were taken from all the wells.
The amount of protein in each well was quantified using the BCA kit for protein determination (Sigma-Aldrich, St Louis, MO, USA). Positive controls were performed using a separate 96-well plate format according to Table S8 in SI4.
SI4. Results of transporter substrate assays (SLC)
Table S8: Parameters of positive controls, control cell lines and plating for SLC transporters assays.
KH: Krebs-Henseleit buffer, HBSS: Hank's balanced salt solution, MES: 2 -(N-morpholino) ethanesulfonic acid, cGMP:
Guanosine cyclic phosphate, E3S: Estrone -3-sulfate, Gly-Sar: Glycylsarcosine, MPP+: 1-methyl-4-phenylpyridinium.
Calculation of fold accumulation values for SLC transporter substrate assays The fold accumulation value was defined as the ratio of uptake of the test substance (TS) or probe substrate into transfected and control cells. If the fold accumulation is > 2 and can be inhibited by a known inhibitor of the transporter, the test substance can be considered as a substrate of the respective transporter.
Fold accumulation = UPTTRP
• UPTTRP: accumulated amount of test substance (TS) or probe substrate in transfected cells normalized by protein content […]
• UPTCTRL: accumulated amount of test substance (TS) or probe substrate in control cells normalized by protein content […]
4.2 Multidrug and toxin extrusion protein MATE2-K
(MDCKII-MATE2K-Fin) and control cells (MDCKII-CAT-Fin) applying 2- and 20-minute incubation periods, measured in SLC transporter substrate assay. […] Concentrations are nominal. […]
and control cells (MDCKII-CAT-Fin) applying 2- and 20-minute incubation periods, measured in SLC transporter […]
Compound Nominal In MATE2-K Fold

Chain of human MATE2-K (Q86VL8 1-566 isoform Q86VL8-3): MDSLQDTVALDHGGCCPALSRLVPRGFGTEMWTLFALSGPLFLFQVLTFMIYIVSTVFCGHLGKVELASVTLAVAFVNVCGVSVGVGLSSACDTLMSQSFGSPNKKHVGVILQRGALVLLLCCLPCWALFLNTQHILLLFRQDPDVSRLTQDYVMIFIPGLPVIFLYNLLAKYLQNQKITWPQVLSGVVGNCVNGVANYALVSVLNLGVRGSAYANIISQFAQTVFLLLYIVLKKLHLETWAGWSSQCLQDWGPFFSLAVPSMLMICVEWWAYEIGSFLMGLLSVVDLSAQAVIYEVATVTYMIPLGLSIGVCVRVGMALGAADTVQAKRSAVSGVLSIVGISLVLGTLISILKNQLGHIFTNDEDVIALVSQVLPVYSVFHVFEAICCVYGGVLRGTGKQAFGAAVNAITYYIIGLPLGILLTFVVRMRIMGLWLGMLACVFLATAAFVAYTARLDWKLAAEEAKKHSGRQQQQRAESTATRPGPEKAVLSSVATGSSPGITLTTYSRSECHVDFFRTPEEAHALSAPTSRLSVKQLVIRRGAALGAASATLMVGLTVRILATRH

## [3H]C(c1ccc2ccccc2c1)C([3H])(NC(=O)C1CCC(CNC(=O)CN2CCN(CC(=O)[O-])CCN(CC(=O)[O-])CCN(CC(=O)[O-])CC2)CC1)C(=O)NCCCCC(NC(=O)NC(CCC(=O)O)C(=O)O)C(=O)O.[Lu+3] (stereo not drawn) [([α,β-^3H]Nal)Lu-PSMA-617]
MRP4; 0.30 and 3.00 µM, inhibition >20% defined as significant
  Inhibitor assessment (MRP4): no inhibitor
MRP4; test substance 0.30 µM nominal
  Relative inhibition: -1%
  ATP dependent transport: 13761.00 ± 400.40 pmol/mg/min
  Relative ATP dependent transport: 100.94 ± 4.07 % of control
MRP4; test substance 3.00 µM nominal
  Relative inhibition: -6%
  ATP dependent transport: 14510.33 ± 290.35 pmol/mg/min
  Relative ATP dependent transport: 106.44 ± 3.66 % of control
Human MATE2-K; 0.03 µM nominal, 2 min
  Accumulation in MATE2-K transporter expressing cells: 0.06 ± 0.01 pmol/mg protein
  Accumulation in control cells: 0.11 ± 0.01 pmol/mg protein
  Accumulation, active transport: -0.05 ± 0.02 pmol/mg protein
  Fold accumulation: 0.54
Human MATE2-K; 0.03 µM nominal, 20 min
  Accumulation in MATE2-K transporter expressing cells: 0.10 ± 0.01 pmol/mg protein
  Accumulation in control cells: 0.16 ± 0.01 pmol/mg protein
  Accumulation, active transport: -0.07 ± 0.01 pmol/mg protein
  Fold accumulation: 0.59
Human MATE2-K; 0.30 µM nominal, 2 min
  Accumulation in MATE2-K transporter expressing cells: 0.64 ± 0.14 pmol/mg protein
  Accumulation in control cells: 0.59 ± 0.04 pmol/mg protein
  Accumulation, active transport: 0.05 ± 0.15 pmol/mg protein
  Fold accumulation: 1.08
Human MATE2-K; 0.30 µM nominal, 20 min
  Accumulation in MATE2-K transporter expressing cells: 0.91 ± 0.13 pmol/mg protein
  Accumulation in control cells: 0.97 ± 0.07 pmol/mg protein
  Accumulation, active transport: -0.06 ± 0.15 pmol/mg protein
  Fold accumulation: 0.94
Human MATE2-K; 0.03, 0.30 µM, 2, 20 min
  Substrate assessment (MATE2-K): no in vitro substrate
Human MATE2-K; 2 min, 0.3 µM
  Max. transporter-specific fold accumulation, without inhibitor: 1.08
